# Assays:
# [1] = test system: HT-29 human colon carcinoma cells; assay: In vitro sensitivity, sulforhodamine B cytotoxicity assay, HT-29 (Table 2); format: cell-based; conditions: Homo sapiens, HT-29; 72-hour incubation; averaged from two separate experiments
# [2] = test system: CDF1 female mice; assay: Acute toxicity of liposomal paclitaxel or paclitaxel derivative given intraperitoneally; conditions: liposomes, i.p.
# Protocol: Moreover, liposomes containing either paclitaxel or a 2′-(2-bromo) hydrophobic paclitaxel derivative (containing either a six-carbon (C-6), C-8, C-12, C-14 or C-16 acyl chain at the 2′ position) were administered, intraperitoneally in 5 doses, to SCID (severe combined inimunodeficiency) mice bearing a human ovarian cancer (OvCar 3), at a dose of 12.5 mg paclitaxel per kg or a dose of 50 mg paclitaxel derivative per kg.
# CDF1 female mice, 5 or 10 mice per group, were intraperitoneally administered either paclitaxel-, 2′-C6-paclitaxel derivative-, or 2′-C16-paclitaxel derivative-containing liposomes, in a single dose, or 5 doses, of either 12.5, 25, 50, 100, 200, 300. 400 or 500 mg of paclitaxel or paclitaxel derivative per kg of mouse body weight.
# [3] = in vivo; conditions: female, CDF1, mouse, plasma, intravenous, 25 mg/kg
# Protocol: (§2) Control mice received an equivalent concentration of Cremophor® EL and ethanol (in PBS) only. At 1, 4, 8, 24 or 48 hr after injection mice were sacrificed and blood was collected via heart puncture into 1 cc syringes containing 0.05 mL of a 0.129M Sodium citrate solution (Baxter, N.J.). Samples were centrifuged at 10,000 ×g for 3 min and plasma removed. Extraction of test materials from plasma was done by adding an equal volume of acetonitrile containing 2C12-HT, 50 μg/ml, as an internal standard, and vortexing vigorously for 30 sec. Samples were then centrifuged for 3 min at 10,000 ×g and supernatant and drug levels determined via HPLC as described previously.
# [4] = test system: MCF-7/ADR (adriamycin-resistant); assay: In vitro sensitivity, sulforhodamine B cytotoxicity assay, MCF-7/ADR (Table 2); format: cell-based, human; conditions: Homo sapiens, NCI/ADR-RES; 72-hour incubation; averaged from two separate experiments
# [5] = test system: OVCAR-3 cancer cells; assay: cells; conditions: Homo sapiens, OVCAR-3, 72 h, read-out: GI50 ± S.D. OVCAR-3
# Protocol: Briefly, 96-well microtiter plates were inoculated (100 μL/well) with 5×10^3 (A549) or 7.5×10^3 (OVCAR-3) cells/well, in RPMI-1640 supplemented with 10% FBS (growth media). The plates were incubated for 24 hr at 37° C., 100% humidity and 5% CO2. At 24 hours, growth media (100 μL) was added to designated “time zero” plates. Similarly, serial dilutions of drug or vehicle (in media) were added (100 μL aliquots) to the test and vehicle control wells at twice the predetermined highest concentration. There were triplicate wells on each plate and duplicate plates (total 6 wells) for each drug concentration. The test plates were incubated as above for 72 hr. Cells (including time zero plates) were then fixed with 50 μL of 50% trichloroacetic acid (TCA) (w:v) for adherent cells or 80% TCA for suspended cells, and plates refrigerated at 4° C. for 1 hr. […] The bound stain was solubilized with 100 μL of 10 mM Tris buffer and the optical density was read spectrophotometrically at 490 nm (Microplate Reader Model 3550-UV, Bio-Rad, Hercules, Calif.). Percent growth was calculated as follows: (T-T0) / (C-T0)×100; where (T)=mean optical density of treated wells at a given drug concentration, (T0)=mean optical density of time zero wells, and (C)=mean optical density of control wells.
# [6] = test system: CDF1 mice; assay: In vivo toxicity, i.v. x 5, non-tumor bearing mice; conditions: 30 days observation
# Protocol: (§1) A separate group (n=5) was injected with concentrations of Cremophor® EL and ethanol (in PBS) equivalent to the highest concentration of the test treatment. Mortality was recorded daily and body weights taken at least twice weekly for an observation period of 30 days.
# [7] = High sensitivity differential scanning calorimetry on phosphocholine bilayers; format: physicochemical; conditions: DMPC, DPPC and DSPC bilayers, as high as 9.1 mol % (Lipid/Drug, 10:1)
# From the text: High sensitivity differential scanning calorimetry (DSC) was used to examine the effect of addition of taxol and its acylated derivatives on the thermotropic phase properties of phosphocholine bilayers of saturated 1, 2-dimyristoyl-sn-glycero-3-phosphocholines (DMPC), 1,2-dipalmitoyl-sn-glycero-3-phosphocholines (DPPC), and 1,2-distearoyl-sn-glycero-3-phosphocholines (DSPC). Likewise, three acylated taxol prodrugs were varied in chain lengths from six, twelve, to sixteen carbons.
# [8] = test system: A-549 human lung carcinoma; assay: In vitro sensitivity, sulforhodamine B cytotoxicity assay, A-549 (Table 2); format: cell-based; conditions: Homo sapiens, A549; 72-hour incubation; averaged from two separate experiments
# Protocol: Briefly, 96-well microtiter plates were inoculated (100 μL/well) with 5×10^3 (A549) or 7.5×10^3 (OVCAR-3) cells/well, in RPMI-1640 supplemented with 10% FBS (growth media). The plates were incubated for 24 hr at 37° C., 100% humidity and 5% CO2. At 24 hours, growth media (100 μL) was added to designated “time zero” plates. Similarly, serial dilutions of drug or vehicle (in media) were added (100 μL aliquots) to the test and vehicle control wells at twice the predetermined highest concentration. […] Cells (including time zero plates) were then fixed with 50 μL of 50% trichloroacetic acid (TCA) (w:v) for adherent cells or 80% TCA for suspended cells, and plates refrigerated at 4° C. for 1 hr. […] The plates were then air-dried for 24 hr.
# [9] = In vivo toxicity, i.p. x 5, non-tumor bearing mice; conditions: CDF1, mouse, in vivo, ip; i.p. once daily for five consecutive days; read-out: maximum tolerated i.p. dose (MTD, highest dose with no deaths)
# Protocol: as §1
# [10] = test system: CDF1 mice; assay: In vivo toxicity, i.p. x 5, non-tumor bearing mice; conditions: 30 days observation
# Protocol: as §1
# [11] = test system: OVCAR-3 human ovarian cancer; assay: i.p. OVCAR-3 tumor, i.v. treatment, survival (FIG. 6); format: in vivo, mice
# Protocol: Mice were observed daily for mortality and % ILS was calculated as described above.
# [12] = test system: OVCAR-3 human ovarian cancer; assay: i.p. OVCAR-3 tumor, i.p. treatment, survival
# Protocol: C.B-17 SCID female mice were injected i.p. with 5×10^6 OVCAR-3 human ovarian cancer cells (day 0). […] Note that long-term survivors (mice that survived through day 300 after cell inoculation) were not included in mean, median, or % ILS calculations.
# [13] = test system: MCF-7 human breast carcinoma; assay: In vitro sensitivity, sulforhodamine B cytotoxicity assay, MCF-7 (Table 2); format: cell-based; conditions: Homo sapiens, MCF7; 72-hour incubation; averaged from two separate experiments
# [14] = test system: A549 human lung cancer; assay: s.c. A549 tumor, i.v. treatment, tumor volume (FIG. 8); format: in vivo, mice; conditions: i.v., independent of the dose schedule; BrC16HT 12.5-25 mg/kg, Taxol® 25 mg/kg
# From the text: Mice were sacrificed when the average tumor volume of the group reached 1500 mm^3.
# [15] = test system: A549 cancer cells; assay: cells; conditions: Homo sapiens, A549, 72 h, read-out: GI50 ± S.D. A549
# Protocol: Briefly, 96-well microtiter plates were inoculated (100 μL/well) with 5×10^3 (A549) or 7.5×10^3 (OVCAR-3) cells/well, in RPMI-1640 supplemented with 10% FBS (growth media). The plates were incubated for 24 hr at 37° C., 100% humidity and 5% CO2. At 24 hours, growth media (100 μL) was added to designated “time zero” plates. Similarly, serial dilutions of drug or vehicle (in media) were added (100 μL aliquots) to the test and vehicle control wells at twice the predetermined highest concentration. There were triplicate wells on each plate and duplicate plates (total 6 wells) for each drug concentration. The test plates were incubated as above for 72 hr. Cells (including time zero plates) were then fixed with 50 μL of 50% trichloroacetic acid (TCA) (w:v) for adherent cells or 80% TCA for suspended cells, and plates refrigerated at 4° C. for 1 hr. The supernatant was discarded (suspended cell plates were first centrifuged) and the wells rinsed six times with tap water and air-dried. One hundred microliters of 0.4% SRB in 1% acetic acid were added to each well and the plates were incubated under ambient (RT) conditions for 10 min. Unbound stain was removed by rinsing the wells three times with 1% acetic acid. The plates were then air-dried for 24 hr. The bound stain was solubilized with 100 μL of 10 mM Tris buffer and the optical density was read spectrophotometrically at 490 nm (Microplate Reader Model 3550-UV, Bio-Rad, Hercules, Calif.). Percent growth was calculated as follows: (T-T0) / (C-T0)×100; where (T)=mean optical density of treated wells at a given drug concentration, (T0)=mean optical density of time zero wells, and (C)=mean optical density of control wells.
# [16] = test system: OVCAR-3 human ovarian cancer; assay: s.c. OVCAR-3 tumor, i.v. treatment, tumor volume (FIG. 7); format: in vivo, mice
# Protocol: OVCAR-3 human ovarian cancer.
# The tumor volume (mm^3) from tumor measurement was calculated: (Length * (Width/2)^2 * π). Mice were sacrificed when the average tumor volume of the group reached 1500 mm^3.
# [17] = Pharmacokinetic, plasma levels after i.v. administration; conditions: 25 mg/kg i.v., CDF1 female mice, 8 hours
# Protocol: as §2
# [18] = test system: A549 human NSCLC; assay: i.p. A549 tumor, i.p. treatment, survival; conditions: i.p. on days 1, 3, 5, 7 & 9
# Protocol: Note that long-term survivors (mice that survived through day 300 after cell inoculation) were not included in mean, median, or % ILS calculations.
# SCID mice (6/group) were injected with 5×10^6 A549 human NSCLC cells i.p. (day 0).
# [19] = treated days 20, 22, 24, 26 and 28 i.p., 25 mg/kg
# [20] = treated days 20, 22, 24, 26 and 28 i.p., 25 mg/kg, long-term survivors not included
smiles,measurement,setting,value
"CC(=O)O[C@H]1C(=O)[C@@]2(C)[C@H]([C@H](OC(=O)c3ccccc3)[C@]3(O)C[C@H](OC(=O)[C@H](O)[C@@H](NC(=O)c4ccccc4)c4ccccc4)C(C)=C1C3(C)C)[C@]1(OC(C)=O)CO[C@@H]1C[C@@H]2O [Paclitaxel, reference compound]",GI50,[1],< 1.4 nM
same,number of mice that died within the first 14 days post-injection/total,[2]; five doses of 12.5 mg/kg,0/10
same,number of mice that died within the first 14 days post-injection/total,[2]; five doses of 25 mg/kg,10/10
same,number of mice that died within the first 14 days post-injection/total,[2]; five doses of 50 mg/kg,10/10
same,number of mice that died within the first 14 days post-injection/total,[2]; single dose 12.5 mg/kg,0/10
same,number of mice that died within the first 14 days post-injection/total,[2]; single dose 25 mg/kg,0/10
same,number of mice that died within the first 14 days post-injection/total,[2]; single dose 50 mg/kg,0/10
same,number of mice that died within the first 14 days post-injection/total,"[2]; single dose 100 mg/kg, 100 mg/kg",5/5
same,number of mice that died within the first 14 days post-injection/total,"[2]; single dose 100 mg/kg, listed as paclitaxel, 100 mg/kg",all five of the mice
same,concentration at 1 h,[3],14400 ± 4600 ng/mL
same,concentration at 4 h,[3],< 5000 ng/mL
same,GI50,[4],4170 nM
same,GI50,[5],1.9 ± 0.03 nM
same,Number of Mice surviving/Total,"[6]; i.v. days 1 through 5, 12.5 mg/kg",10/10
same,Number of Mice surviving/Total,"[6]; i.v. days 1 through 5, 25 mg/kg",8/10
same,Number of Mice surviving/Total,"[6]; i.v. days 1 through 5, 37.5 mg/kg",0/7
same,Number of Mice surviving/Total,"[6]; i.v. days 1 through 5, 50 mg/kg",0/8
same,perturbation of PC bilayers (DSC),[7],little or no effect on the perturbation of all three PC bilayers
same,GI50,[8],2.3 nM
same,MTD at 5 days,[9],12.5 to 25 mg/kg
same,Number of Mice surviving/Total,"[10]; i.p. days 1 through 5, 12.5 mg/kg",20/20
same,Number of Mice surviving/Total,"[10]; i.p. days 1 through 5, 25 mg/kg",10/20
same,Number of Mice surviving/Total,"[10]; i.p. days 1 through 5, 37.5 mg/kg",0/10
same,Number of Mice surviving/Total,"[10]; i.p. days 1 through 5, 50 mg/kg",0/25
same,medium survival times,"[11]; 12.5 mg/kg i.v. on days 20, 22, 24, 26 & 28",170 days
same,survival time vs. control,"[11]; 12.5 or 25 mg/kg i.v. on days 1, 3, 5, 7, 9, 42, 44, 46, 48 & 50 (FIG. 6a)",significantly (p<0.05 vs. control) increased the survival time
same,survival time vs. control,"[11]; i.v. on days 20, 22, 24, 26 & 28, BrC16HT 12.5 or 25 mg/kg, Taxol® 12.5 mg/kg (FIG. 6b)",significantly (p<0.05 vs. control) increased the survival time
same,"long-term survivors (LTS), in words",[12]; delayed i.p. schedule (Table 9b),no long-term survivors were observed
same,survival of tumor-bearing mice vs. control,"[12]; early (days 1, 3, 5, 7 & 9) and delayed (days 20, 22, 24, 26 & 28) i.p. treatment schedules",significantly prolonged (p<0.05 vs. control) the survival
same,% ILS,[12]; [19],84%
same,LTS/n (mice that survived to 300 days),[12]; [19],0/10
same,MST Days ± SEM (n),[12]; [20],188 ± 15 (10) Days
same,Median survival time,[12]; [20],185 days
same,GI50,[13],< 1.5 nM
same,tumor growth vs. control,[14],significantly (p <0.05 vs. control) inhibited the tumor growth
same,GI50,[15],3.3 ± 0.8 nM
same,delaying tumor growth,"[16]; 25 mg/kg i.v. on days 1, 3, 5, 7 & 9",~59 days
same,tumor growth vs. control,"[16]; i.v. on days 1, 3, 5, 7 & 9, BrC16HT 12.5-25 mg/kg, Taxol® 25 mg/kg",significantly (p<0.05 vs. control) inhibited the tumor growth
same,Plasma level of paclitaxel ± SEM,[17],none detectable
same,survival time of tumor-bearing mice vs. control,[18],significantly (p<0.05 vs. control) increased the survival time

# Reference: patent US6482850B2, “Hydrolysis-promoting hydrophobic taxane derivatives” (priority 1995, dated 2002)
